Each structure is given as a SMILES string.

Consider two compounds from patent US20210269451A1, “PYRIDINYL HETEROCYCLYL COMPOUNDS FOR THE TREATMENT OF AUTOIMMUNE DISEASE” (Hoffmann-La Roche Inc., priority 2018, published 2021).

For data set [1], the target named is T1, human TLR8 (Homo sapiens, UniProt Q9NR97).
T1 construct: host or cells: HEK293-Blue-hTLR-8 (HEK293)
T1 sequence (Q9NR97 27-1041): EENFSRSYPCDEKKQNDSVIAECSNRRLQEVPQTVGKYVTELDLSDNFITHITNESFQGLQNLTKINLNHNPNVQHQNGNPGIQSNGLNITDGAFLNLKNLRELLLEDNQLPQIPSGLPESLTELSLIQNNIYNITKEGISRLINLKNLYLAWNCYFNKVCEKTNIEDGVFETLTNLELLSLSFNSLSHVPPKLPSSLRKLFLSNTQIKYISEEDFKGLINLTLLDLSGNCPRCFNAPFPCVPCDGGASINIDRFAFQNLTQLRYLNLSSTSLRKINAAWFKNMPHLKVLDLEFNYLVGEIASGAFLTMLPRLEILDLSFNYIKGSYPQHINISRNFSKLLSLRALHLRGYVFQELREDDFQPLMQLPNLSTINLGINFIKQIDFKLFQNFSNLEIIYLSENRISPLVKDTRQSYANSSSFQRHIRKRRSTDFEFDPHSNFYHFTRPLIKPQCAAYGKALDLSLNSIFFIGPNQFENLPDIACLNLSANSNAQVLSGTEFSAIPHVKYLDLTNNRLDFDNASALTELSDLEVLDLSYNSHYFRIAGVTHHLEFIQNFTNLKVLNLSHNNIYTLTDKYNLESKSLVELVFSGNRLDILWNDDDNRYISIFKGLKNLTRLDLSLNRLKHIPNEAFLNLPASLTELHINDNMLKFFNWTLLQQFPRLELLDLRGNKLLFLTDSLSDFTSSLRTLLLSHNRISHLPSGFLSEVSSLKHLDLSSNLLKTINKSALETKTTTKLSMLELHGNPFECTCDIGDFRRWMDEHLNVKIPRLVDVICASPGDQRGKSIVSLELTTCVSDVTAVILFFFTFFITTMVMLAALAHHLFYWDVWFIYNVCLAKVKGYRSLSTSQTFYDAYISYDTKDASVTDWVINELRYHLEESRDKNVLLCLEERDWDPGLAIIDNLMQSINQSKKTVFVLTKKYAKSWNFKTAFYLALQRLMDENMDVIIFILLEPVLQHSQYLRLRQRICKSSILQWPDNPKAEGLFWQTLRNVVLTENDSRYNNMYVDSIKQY
Nature of the data set: HEK293-Blue-hTLR-8 cells assay. The format is cell-based. As to conditions: HEK293-Blue-hTLR8 cells, R848 stimulation, 20 hrs, SEAP reporter; read-out: HEK/hTLR8 IC50. The protocol:
The following tests were carried out in order to determine the activity of the compounds of formula (I) and (Ia) in HEK293-Blue-hTLR-7/8/9 cells assay.
HEK293-Blue-hTLR-8 cells assay:
A stable HEK293-Blue-hTLR-8 cell line was purchased from InvivoGen (Cat. #: hkb-htlr8, San Diego, Calif., USA). These cells were originally designed for studying the stimulation of human TLR8 by monitoring the activation of NE-κB. A SEAP (secreted embryonic alkaline phosphatase) reporter gene was placed under the control of the IFN-β minimal promoter fused to five NE-κB and AP-1-binding sites. The SEAP was induced by activating NE-κB and AP-1 via stimulating HEK-Blue hTLR8 cells with TLR8 ligands. Therefore the reporter expression was declined by TLR8 antagonist under the stimulation of a ligand, such as R848, for incubation of 20 hrs. The cell culture supernatant SEAP reporter activity was determined using QUANTI-Blue™ kit (Cat. #: rep-qbl, Invivogen, San Diego, Ca, USA) at a wavelength of 640 nm, a detection medium that turns purple or blue in the presence of alkaline phosphatase.
HEK293-Blue-hTLR8 cells were incubated at a density of 250,000-450,000 cells/mL in a volume of 170 μL in a 96-well plate in Dulbecco's Modified Eagle's medium (DMEM) containing 4.5 g/L glucose, 50 U/mL penicillin, […], […], 2 mM L-glutamine, 10% (v/v) heat-inactivated fetal bovine serum with addition of 20 μL test compound in a serial dilution in the presence of final DMSO at 1% and 10 μL of 60 uM R848 in above DMEM, perform incubation under 37° C. in a CO2 incubator for 20 hrs. Then 20 μL of the supernatant from each well was incubated with 180 μL Quanti-blue substrate solution at 37° C. for 2 hrs and the absorbance was read at 620˜655 nm using a spectrophotometer. The signalling pathway that TLR8 activation leads to downstream NE-κB activation has been widely accepted, and therefore similar reporter assay was modified for evaluating TLR8 antagonist.

Data set [2] addresses T2, CYP2D6 (Homo sapiens, UniProt P10635).
T2 construct: tissue BD-Gentest 452117; host or cells: human liver microsomes
The data set can be described thus: CYP inhibition assay in human liver microsome. The format is in vitro ADME. As to conditions: human liver microsomes, probe dextromethorphan, dextromethorphan substrate, percentage inhibition <0: not or weak inhibitor, read-out: CYP 2D6 inhibition %@10 μM. The method in brief: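 Reversible CYP2D6 inhibition tested in human liver microsomes with substrate, NADPH-started, 10 min at 37° C; compound from 2 mM intermediate DMSO stock. Metabolite measured by RapidFire MS/MS against D3-dextrorphan internal standard; % inhibition scaled between DMSO controls and concentrated standard inhibitor.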
(In general: Liver microsomes are a subcellular fraction often used to study metabolism.)

T2 sequence (P10635 whole entry): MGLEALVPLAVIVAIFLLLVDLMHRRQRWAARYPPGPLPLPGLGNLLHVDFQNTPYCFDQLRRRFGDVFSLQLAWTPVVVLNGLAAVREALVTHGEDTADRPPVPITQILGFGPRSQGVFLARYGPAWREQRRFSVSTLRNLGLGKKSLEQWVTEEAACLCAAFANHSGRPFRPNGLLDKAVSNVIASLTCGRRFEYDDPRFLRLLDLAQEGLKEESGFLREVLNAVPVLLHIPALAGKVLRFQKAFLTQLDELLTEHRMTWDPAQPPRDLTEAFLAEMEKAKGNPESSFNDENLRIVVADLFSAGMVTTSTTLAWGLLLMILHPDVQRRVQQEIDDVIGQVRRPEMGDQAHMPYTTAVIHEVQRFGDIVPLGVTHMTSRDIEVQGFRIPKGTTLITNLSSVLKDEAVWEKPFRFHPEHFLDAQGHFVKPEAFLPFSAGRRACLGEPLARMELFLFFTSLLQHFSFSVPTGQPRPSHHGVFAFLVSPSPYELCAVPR

As a reminder, the inhibition is the relative decrease from the control value, in per cent. As to `Cc1cc(NC2CN(C[C@H]3CN(c4ccc(C#N)c5ncccc45)C[C@@H](C)O3)C2)cc(C)n1` [Example 7], in data set [1], the IC50 stood at 31 nM. Moreover, the inhibition at 10 min, 10 μM in data set [2] was -21.5%.

Regarding `Cc1cc(NC2CCN(C[C@H]3CN(c4ccc(C#N)c5ncccc45)C[C@@H](C)O3)C2)cc(CO)n1` (stereo partly shown) [Example 6], in data set [1], the IC50 is 53 nM. In addition, the inhibition at 10 min, 10 μM in data set [2] is 8%.
